According to patent publication US8753648B2 (priority 2002, dated 2014):

Tests used:
[1] = system: RK44.20 cells; details: rabbit
[2] = system: CV-1 cells; details: African green monkey
[3] = system: cowpox virus; details: mouse, in vivo; cited from earlier work
[4] = system: cowpox virus; details: mouse, in vivo; cited from earlier work; remark: listed apart in the source

Row | Compound | AZT concentration with toxic effect on cells [1] [mg/mL] | AZT concentration with toxic effect on cells [2] [mg/mL] | effect on death [3] | effect on mortality [4]
1 | Cc1cn([C@H]2C[C@H](N=[N+]=[N-])[C@@H](CO)O2)c(=O)[nH]c1=O [AZT, 3′-azido-2′,3′-dideoxythymidine] | > 1.5 | > 1.5 |  | 
2 | Nc1ccn(C[C@@H](CO)OCP(=O)(O)O)c(=O)n1 [Cidofovir] |  |  | only delayed but did not prevent death | reduce mortality
